Experiments:
[1] = Hygroscopicity: DVS isotherm at 25° C.; type: physicochemical; conditions: for hygroscopicity: DVS at 25° C.; for water uptake up to 80% RH: 25° C./80% RH
Description: DVS isotherm plot was collected at 25° C. to investigate the solid form stability as a function of humidity. […] For the possible hydrate/solvate di-HCl salt Type A, solids were equilibrated at ambient humidity (~30% RH) before testing. DVS was measured via a SMS (Surface Measurement Systems) DVS Intrinsic. The relative humidity at 25° C. were calibrated against deliquescence point of LiCl, Mg(NO3)2 and KCl. DVS isotherm plot was collected at 25° C. to investigate the solid form stability as a function of humidity for anhydrate Type A (807919-05-A). Solids were pre-dried at 0% RH to remove the unbounded solvent or water before started. […] DVS was measured via a SMS (Surface Measurement Systems) DVS Intrinsic. The relative humidity at 25° C. were calibrated against deliquescence point of LiCl, Mg(NO3)2 and KCl.

[2] = Physical and chemical (solid-state) stability under 25° C./60% RH and 40° C./75% RH for one week; type: physicochemical; conditions: for Form change: XRPD
Description: Physicochemical stability of Type A (807919-05-A) was evaluated under 25° C./60% RH and 40° C./75% RH for one week, and 80° C. (closed) for 24 hours.

CCOCc1nc2c(N)nc3ccccc3c2n1CC(C)(C)O [Freebase Type A, 1-[4-amino-2-(ethoxymethyl)imidazo-[4,5-c]-quinolin-1-yl]-2-methylpropan-2-ol]
hygroscopicity ([1]; listed as Type A): non-hygroscopic | hygroscopicity ([1]; listed as freebase Type A): non-hygroscopic | Water Uptake at 25° C./80% RH ([1]; DVS, 25° C., up to 80% RH): 0.1% | water uptake up to 80% RH ([1]; DVS, listed as Type A): 0.1% | water uptake up to 80% RH ([1]; DVS, listed as freebase Type A): 0.1% | Form Change Post DVS Test ([1]; XRPD after DVS): No | Form Change Post DVS Test ([1]; XRPD pre and post DVS, listed as Type A): no form change | Form Change Post DVS Test ([1]; XRPD pre and post DVS, listed as freebase Type A): no form change | HPLC Purity % of Initial ([2]; 25° C./60% RH): 99.8% | HPLC Purity Area % ([2]; 25° C./60% RH): 99.15 Area % | Form change ([2]; 25° C./60% RH): No | HPLC Purity % of Initial ([2]; 40° C./75% RH): 100.0% | HPLC Purity Area % ([2]; 40° C./75% RH): 99.28 Area % | Form change ([2]; 40° C./75% RH): No

— patent US20260248780A1, “PHARMACEUTICAL COMPOSITIONS” (Birdie Biopharmaceuticals, Inc., priority 2017, published 2026)
